Structures can show the parent of a compound that is named as a salt.
Target: HPK1 (Homo sapiens (Human), UniProt Q92918)
Experiment: HPK1 Inhibition Assay (ADP-Glo kinase assay)
Type: biochemical
Details: ATP 10 μM
Procedure, shortened: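 ADP-Glo luminescence read-out after 1 h room-temperature kinase reaction with 10 μM ATP and 0.1 μg/ml MBP. Recombinant human HPK1 at 7.5 ng/μl; buffer 40 mM Tris pH 7.5, 20 mM MgCl2. Compounds serially diluted 5-fold over 10 points from 10 mM DMSO stock.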

Sequence of HPK1 (Q92918 1-346 limits assumed): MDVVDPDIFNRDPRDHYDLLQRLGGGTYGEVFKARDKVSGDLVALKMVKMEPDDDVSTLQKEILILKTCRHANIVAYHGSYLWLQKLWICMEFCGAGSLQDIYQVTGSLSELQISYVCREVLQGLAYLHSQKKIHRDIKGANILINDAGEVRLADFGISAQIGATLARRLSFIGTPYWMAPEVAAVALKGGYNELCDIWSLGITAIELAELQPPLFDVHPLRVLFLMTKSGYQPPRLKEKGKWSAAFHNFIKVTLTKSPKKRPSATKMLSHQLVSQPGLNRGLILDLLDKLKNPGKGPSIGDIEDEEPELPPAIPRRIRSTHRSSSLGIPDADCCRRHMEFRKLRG

| IC50 [nM] | SMILES |
| --- | --- |
| < 100 | C[C@@H]1CN(c2c(NC(=O)c3ccc(=O)n(-c4c(F)cccc4F)n3)ccc3nn(C45CC(C)(C4)C5)cc23)C[C@@H]1N [Example 318, N-(4-((3R,4R)-3-amino-4-methylpyrrolidin-1-yl)-2-(3-methylbicyclo[1.1.1]pentan-1-yl)-2H-indazol-5-yl)-1-(2,6-difluorophenyl)-6-oxo-1,6-dihydropyridazine-3-carboxamide] |
| < 100 | CC(C)c1nc2c(N3CC[C@@](C)(O)C3)c(NC(=O)c3ccc(=O)n(-c4c(F)cccc4F)n3)ccc2n1C [Example 140, (R)-1-(2,6-difluorophenyl)-N-(4-(3-hydroxy-3-methylpyrrolidin-1-yl)-2-isopropyl-1-methyl-1H-benzo[d]imidazol-5-yl)-6-oxo-1,6-dihydropyridazine-3-carboxamide] |
| < 100 | CC(C)n1ncc2c(N3CCC[C@@H]3CN)c(NC(=O)c3ccc(=O)n(-c4c(F)cccc4F)n3)ccc21 [Example 181, (R)-N-(4-(2-(aminomethyl)pyrrolidin-1-yl)-1-isopropyl-1H-indazol-5-yl)-1-(2,6-difluorophenyl)-6-oxo-1,6-dihydropyridazine-3-carboxamide] |
| < 100 | Cc1nc2c(N3CC[C@](C)(N)C3)c(NC(=O)c3ccc(=O)n(-c4c(F)cccc4F)n3)ccc2n1C [Example 77, (S)-N-(4-(3-amino-3-methylpyrrolidin-1-yl)-1,2-dimethyl-1H-benzo[d]imidazol-5-yl)-1-(2,6-difluorophenyl)-6-oxo-1,6-dihydropyridazine-3-carboxamide] |
| < 100 | CC(C)(C)n1cc2c(N3CC[C@@H](N)C3)c(NC(=O)c3ccc(=O)n(-c4c(F)cccc4F)n3)ccc2n1 [Example 241, (R)-N-(4-(3-aminopyrrolidin-1-yl)-2-(tert-butyl)-2H-indazol-5-yl)-1-(2,6-difluorophenyl)-6-oxo-1,6-dihydropyridazine-3-carboxamide] |
| 100 to 1000 | Cn1c(C(F)(F)F)nc2c(N3CC[C@H](N)C3)c(NC(=O)c3ccnn(-c4c(F)cccc4F)c3=O)ccc21 [Example 39, (S)—N-(4-(3-aminopyrrolidin-1-yl)-1-methyl-2-(trifluoromethyl)-1H-benzo[d]imidazol-5-yl)-2-(2,6-difluorophenyl)-3-oxo-2,3-dihydropyridazine-4-carboxamide] |
| < 100 | N[C@@H]1CCN(c2c(NC(=O)c3ccc(=O)n(-c4c(F)cccc4F)n3)ccc3nn(C4CCOCC4)cc23)C1 [Example 337, (R)-N-(4-(3-aminopyrrolidin-1-yl)-2-(tetrahydro-2H-pyran-4-yl)-2H-indazol-5-yl)-1-(2,6-difluorophenyl)-6-oxo-1,6-dihydropyridazine-3-carboxamide] |
| < 100 | CC(C)c1nc2c(N3CC4[C@@H](N)[C@@H]4C3)c(NC(=O)c3ccc(=O)n(-c4c(F)cccc4F)n3)ccc2n1C (stereo partly drawn) [Example 118, N-(4-((1R,5S,6s)-6-amino-3-azabicyclo[3.1.0]hexan-3-yl)-2-isopropyl-1-methyl-1H-benzo[d]imidazol-5-yl)-1-(2,6-difluorophenyl)-6-oxo-1,6-dihydropyridazine-3-carboxamide] |
| 100 to 1000 | Cc1nc2c(N3CC[C@H](N)C3)c(NC(=O)c3ccc(=O)n(-c4c(Cl)cccc4Cl)n3)ccc2n1C [Example 107, (S)—N-(4-(3-aminopyrrolidin-1-yl)-1,2-dimethyl-1H-benzo[d]imidazol-5-yl)-1-(2,6-dichlorophenyl)-6-oxo-1,6-dihydropyridazine-3-carboxamide] |
| < 100 | [2H]C([2H])([2H])C([2H])(n1ncc2c(N3C[C@@H](N)C(C)(C)C3)c(NC(=O)c3ccc(=O)n(-c4c(F)cccc4F)n3)ccc21)C([2H])([2H])[2H] [Example 282, (S)-N-(4-(4-amino-3,3-dimethylpyrrolidin-1-yl)-1-(propan-2-yl-d7)-1H-indaozl-5-yl)-1-(2,6-difluorophenyl)-6-oxo-1,6-dihydropyridazine-3-carboxamide] |
| < 100 | CC(C)Cn1ncc2c(N3CC[C@@H](N)C3)c(NC(=O)c3ccc(=O)n(-c4c(F)cccc4F)n3)ccc21 [Example 294, (R)-N-(4-(3-aminopyrrolidin-1-yl)-1-isobutyl-1H-indazol-5-yl)-1-(2,6-difluorophenyl)-6-oxo-1,6-dihydropyridazine-3-carboxamide] |
| < 100 | CC(C)C(C)(C)n1cc2c(N3C[C@H](N)C4(CC4)C3)c(NC(=O)c3ccc(=O)n(-c4c(F)cccc4F)n3)ccc2n1 [Example 248, (R)-N-(4-(7-amino-5-azaspiro[2.4]heptan-5-yl)-2-(2,3-dimethylbutan-2-yl)-2H-indazol-5-yl)-1-(2,6-difluorophenyl)-6-oxo-1,6-dihydropyridazine-3-carboxamide] |
| < 100 | C[C@@H]1CN(c2c(NC(=O)c3ccc(=O)n(-c4c(F)cccc4F)n3)ccc3c2cnn3[C@H]2CCCOC2)C[C@@H]1N [Example 253, N-(4-((3R,4R)-3-amino-4-methylpyrrolidin-1-yl)-1-((S)-tetrahydro-2H-pyran-3-yl)-1H-indazol-5-yl)-1-(2,6-difluorophenyl)-6-oxo-1,6-dihydropyridazine-3-carboxamide] |
| < 100 | COc1cccc(F)c1-c1cccc(C(=O)Nc2ccc3c(cnn3C)c2N2C[C@H]3C[C@@H]2CN3)[n+]1[O-] [Example 56, 2-((4-((1R,4R)-2,5-diazabicyclo[2.2.1]heptan-2-yl)-1-methyl-1H-indazol-5-yl)carbamoyl)-6-(2-fluoro-6-methoxyphenyl)pyridine 1-oxide] |
| < 100 | C[C@@H]1CN(c2c(NC(=O)c3ccc(=O)n(-c4c(F)cccc4F)n3)ccc3c2cnn3C2CCC2)C[C@@H]1N [Example 296, N-(4-((3R,4R)-3-amino-4-methylpyrrolidin-1-yl)-1-cyclobutyl-1H-indazol-5-yl)-1-(2,6-difluorophenyl)-6-oxo-1,6-dihydropyridazine-3-carboxamide] |
| < 100 | CC1(C)CN(c2c(NC(=O)c3ccc(=O)n(-c4c(F)cccc4F)n3)ccc3c2cnn3[C@H]2CCOC2)C[C@@H]1N [Example 269, N-(4-((R)-4-amino-3,3-dimethylpyrrolidin-1-yl)-1-((S)-tetrahydrofuran-3-yl)-1H-indazol-5-yl)-1-(2,6-difluorophenyl)-6-oxo-1,6-dihydropyridazine-3-carboxamide] |
| < 100 | CC(C)c1nc2c(N3CC[C@@H](NCCO)C3)c(NC(=O)c3ccc(=O)n(-c4c(F)cccc4F)n3)ccc2n1C [Example 130, (R)-1-(2,6-difluorophenyl)-N-(4-(3-((2-hydroxyethyl)amino)pyrrolidin-1-yl)-2-isopropyl-1-methyl-1H-benzo[d]imidazol-5-yl)-6-oxo-1,6-dihydropyridazine-3-carboxamide] |
| < 100 | Cn1c(C(C)(C)C)nc2c(N3CC[C@H](N)C3)c(NC(=O)c3ccc(=O)n(-c4c(F)cccc4F)n3)ccc21 [Example 98, N-{4-[(3S)-3-aminopyrrolidin-1-yl]-2-tert-butyl-1-methyl-1,3-benzodiazol-5-yl}-1-(2,6-difluorophenyl)-6-oxopyridazine-3-carboxamide] |
| < 100 | Cn1ncc2c(N3CCC(N)CC3)c(NC(=O)c3ccc(=O)n(-c4c(F)cccc4F)n3)cc(F)c21 [Example 168, N-(4-(4-aminopiperidin-1-yl)-7-fluoro-1-methyl-1H-indazol-5-yl)-1-(2,6-difluorophenyl)-6-oxo-1,6-dihydropyridazine-3-carboxamide] |
| < 100 | Cc1nc2c(N3CC[C@H](N)C3)c(NC(=O)c3ccnn(-c4c(Cl)cccc4Cl)c3=O)ccc2n1C [Example 49, N-{4-[(35)-3-aminopyrrolidin-1-yl]-1,2-dimethyl-1,3-benzodiazol-5-yl}-2-(2,6-dichlorophenyl)-3-oxopyridazine-4-carboxamide hydrochloride] |
| < 100 | CC(C)c1nc2c(N3CC[C@](N)(C(F)(F)F)C3)c(NC(=O)c3ccc(=O)n(-c4c(F)cccc4F)n3)ccc2n1C (single isomer, unassigned) [Example 138] |
| < 100 | CC(C)(C)n1cc2c(N3CCC(N)CC3)c(NC(=O)c3ccc(=O)n(-c4c(F)cccc4F)n3)ccc2n1 [Example 240, N-(4-(4-aminopiperidin-1-yl)-2-(tert-butyl)-2H-indazol-5-yl)-1-(2,6-difluorophenyl)-6-oxo-1,6-dihydropyridazine-3-carboxamide] |
| < 100 | CC(C)n1ncc2c(N3C[C@H](N)C(C)(C)C3)c(NC(=O)c3ccc(=O)n(-c4c(F)cccc4F)n3)ccc21 [Example 186, (R)-N-(4-(4-amino-3,3-dimethylpyrrolidin-1-yl)-1-isopropyl-1H-indazol-5-yl)-1-(2,6-difluorophenyl)-6-oxo-1,6-dihydropyridazine-3-carboxamide] |
| < 100 | CC1(C)CN(c2c(NC(=O)c3ccc(=O)n(-c4c(F)cccc4F)n3)ccc3nn(C(C)(C)C)cc23)C[C@H]1N [Example 237, (S)-N-(4-(4-amino-3,3-dimethylpyrrolidin-1-yl)-2-(tert-butyl)-2H-indazol-5-yl)-1-(2,6-difluorophenyl)-6-oxo-1,6-dihydropyridazine-3-carboxamide] |
| < 100 | Cn1c(C(C)(C)C(F)(F)F)nc2c(N3CC[C@@H](N)C3)c(NC(=O)c3ccc(=O)n(-c4c(F)cccc4F)n3)ccc21 [Example 158, (R)-N-(4-(3-aminopyrrolidin-1-yl)-1-methyl-2-(1,1,1-trifluoro-2-methylpropan-2-yl)-1H-benzo[d]imidazol-5-yl)-1-(2,6-difluorophenyl)-6-oxo-1,6-dihydropyridazine-3-carboxamide] |
| < 100 | CC(C)n1cc2c(N3CC[C@@H](N)C3)c(NC(=O)c3ccc(=O)n(-c4c(F)cccc4F)n3)cc(F)c2n1 [Example 222, (R)-N-(4-(3-aminopyrrolidin-1-yl)-7-fluoro-2-isopropyl-2H-indazol-5-yl)-1-(2,6-difluorophenyl)-6-oxo-1,6-dihydropyridazine-3-carboxamide] |
| < 100 | CC(C)n1ncc2c(N3C[C@@H](C)[C@@H](N)C3)c(NC(=O)c3ccc(=O)n(-c4ccccc4F)n3)ccc21 [Example 215, N-(4-((3R,4R)-3-amino-4-methylpyrrolidin-1-yl)-1-isopropyl-1H-indazol-5-yl)-1-(2-fluorophenyl)-6-oxo-1,6-dihydropyridazine-3-carboxamide] |
